Measurements as given in patent US7335645B2, “Effectors of dipeptidyl peptidase IV for topical use” (Probiodrug AG, priority 1999, dated 2008).
pEC50: −log10 of the molar value. Counter-ions that a name gives are not always drawn. Values belong to the compound of their own block, whether it stands above or below them.

Legend:
[1] = target: T1, plasma-DP IV (Rattus norvegicus, UniProt P14740); assay: Inhibition of plasma-DP IV after oral administration in healthy Wistar rats; type: in vivo; details: 5 μmol/300 g rat
T1 construct: from tissue; host or cells: plasma of Wistar rats after oral dosing
T1 sequence (P14740 38-767 limits assumed): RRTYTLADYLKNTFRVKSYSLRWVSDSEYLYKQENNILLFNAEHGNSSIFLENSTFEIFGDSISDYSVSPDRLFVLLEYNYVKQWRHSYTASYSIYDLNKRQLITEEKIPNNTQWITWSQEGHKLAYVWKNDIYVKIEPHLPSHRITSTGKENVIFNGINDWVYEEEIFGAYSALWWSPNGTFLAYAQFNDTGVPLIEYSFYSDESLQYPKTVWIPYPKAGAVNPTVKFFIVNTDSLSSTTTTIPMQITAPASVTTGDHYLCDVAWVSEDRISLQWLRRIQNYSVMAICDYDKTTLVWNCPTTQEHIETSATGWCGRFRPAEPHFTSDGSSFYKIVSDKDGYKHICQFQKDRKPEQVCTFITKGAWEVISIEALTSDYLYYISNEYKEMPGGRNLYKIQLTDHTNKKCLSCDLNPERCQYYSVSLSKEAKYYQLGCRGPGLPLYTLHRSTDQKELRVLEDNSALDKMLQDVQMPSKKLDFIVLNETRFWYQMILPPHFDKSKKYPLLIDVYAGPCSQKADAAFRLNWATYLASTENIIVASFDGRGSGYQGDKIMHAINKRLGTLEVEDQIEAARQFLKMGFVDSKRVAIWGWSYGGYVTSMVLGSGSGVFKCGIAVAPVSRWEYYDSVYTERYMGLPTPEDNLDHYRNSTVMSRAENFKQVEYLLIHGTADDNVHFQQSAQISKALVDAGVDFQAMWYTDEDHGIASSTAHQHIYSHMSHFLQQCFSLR
Method: FIG. 1: Systemic action of orally administered DP IV-inhibitors in healthy Wistar rats.
The course, over time, of the percentage inhibition of plasma-DP IV activity following oral administration of 5 μmol of inhibitor per 300 g of rat (n=2) is shown.
The inhibition of plasma-DP IV (systemic action) was investigated following oral administration of side chain-modified DP IV-inhibitors ([…]) compared with unmodified inhibitors in healthy Wistar rats.

[2] = target: T2, PepT1 (Oryctolagus cuniculus, UniProt P36836); assay: Inhibition of 3H-D-Phe-Ala binding to PepT1-expressing P. pastoris cells; details: read-out: EC50: effective concentration inhibiting the binding of 3H-D-Phe-Ala to PepT1-expressing P. pastoris cells by 50%
T2 construct: expressed in transfected cells
T2 sequence (P36836 1-707): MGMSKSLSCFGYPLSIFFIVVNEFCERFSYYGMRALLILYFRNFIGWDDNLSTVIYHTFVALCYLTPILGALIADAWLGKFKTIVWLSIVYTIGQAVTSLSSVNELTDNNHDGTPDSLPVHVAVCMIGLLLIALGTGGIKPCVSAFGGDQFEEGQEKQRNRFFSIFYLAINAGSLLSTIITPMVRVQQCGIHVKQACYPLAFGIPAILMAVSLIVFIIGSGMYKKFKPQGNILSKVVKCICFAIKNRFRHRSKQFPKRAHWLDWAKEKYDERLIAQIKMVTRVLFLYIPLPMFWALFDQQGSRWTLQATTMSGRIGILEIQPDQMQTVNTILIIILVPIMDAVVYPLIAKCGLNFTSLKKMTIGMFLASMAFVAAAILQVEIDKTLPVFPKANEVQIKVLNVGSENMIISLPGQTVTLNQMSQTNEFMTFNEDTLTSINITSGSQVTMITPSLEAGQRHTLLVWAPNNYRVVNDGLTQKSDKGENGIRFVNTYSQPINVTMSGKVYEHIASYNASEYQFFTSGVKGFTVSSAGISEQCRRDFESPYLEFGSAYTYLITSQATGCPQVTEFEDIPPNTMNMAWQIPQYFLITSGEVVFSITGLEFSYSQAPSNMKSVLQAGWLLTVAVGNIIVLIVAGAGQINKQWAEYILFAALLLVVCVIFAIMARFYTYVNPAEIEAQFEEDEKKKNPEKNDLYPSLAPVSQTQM
Method: (§1) Side chain-modified glutamylthiazolidines having a structure H-Glu(X)-Thia were synthesized, with polyethylene glycol or glycine oligomers of various chain lengths being used as X (see Method A for description of synthesis). The binding characteristics of those derivatives and their transportability by the peptide transporter PepT1 were investigated and the Ki values with respect to DP IV were determined (Table 1).

[3] = literature statement (Reinhold et al., 1998); cited from earlier work
[4] = tested on: PepT1; assay: Transport at PepT1-expressing X. leavis oocytes, two-electrode voltage clamp method; type: cell-based; set-up: unit not given here; details: PepT1-expressing oocytes of X. leavis, n.d. = not detectable
Method: as §1

Compound: N[C@@H](CCC(=O)NCC(=O)NCC(=O)NCC(=O)NCC(=O)NCC(=O)O)C(=O)N1CCSC1 [H-Glu(Gly5)-Thia]
- Systemic action (inhibition of plasma-DP IV) after oral administration [1]: no systemic action of the orally administered active ingredient is detectable

Compound: H-Glu(PEG)-Thia
- pEC50 [2]: < 2.00

- melting point: 91 to 94 °C
Compound: N[C@@H](CCC(=O)NCC(=O)NCC(=O)NCC(=O)O)C(=O)N1CCSC1 (as salt: trifluoroacetate) [H-Glu(Gly3)-Thia]

Compound: N[C@@H](CCC(=O)NCC(=O)O)C(=O)N1CCSC1 [Glu(Gly)-Thia]
- Transport of the inhibitor [3]: transported completely

Compound: N[C@@H](CCCCNC(=O)OCc1ccc([N+](=O)[O-])cc1)C(=O)N1CCSC1 [Lys(Z-NO2)-Thia]
- Transport of the inhibitor [3]: transported completely

- pEC50 [2]: 2.96
- Imax: inward currents generated by the transport [4]: 35 ± 13
Compound: NC(CCC(=O)O)C(=O)N1CCSC1 (stereo not drawn) [H-Glu-Thia]

- pEC50 [2]: 2.50
- Imax: inward currents generated by the transport [4]: 42 ± 11
Compound: H-Gly(NHOH)-Thia
